Data reported in paper PMC10315696, “PSMA-GCK01: A Generator-Based ^99mTc/^188Re Theranostic Ligand for the Prostate-Specific Membrane Antigen” (Journal of Nuclear Medicine, 2023).
*1 amine or outer side, *2 acyl side, *3 side chain or, on linkers, in order; H or OH if unused. Where a SMILES comes first, the peptide text is derived from it. [ ]: non-standard residue; d: D form. The star is where a group is joined. X2 = O=C(O)CCC(NC(=O)NC(CCCCN*)C(=O)O)C(=O)O; 2Nal = N[CH](Cc1ccc2ccccc2c1)C(=O)O; X1 = O=C(C1CCC(N[*:1])CC1)[*:2]; Mercaptoacetyl = O=C(CS)*

Experiments:
[1] = system: mice; test: Toxicologic investigation (OECD guideline)
Description: The evaluation was conducted using well-known standard methods ([16],[17]).

[2] = system: patients with metastatic castration-resistant prostate cancer; test: Clinical imaging and therapy under compassionate care; assay type: in vivo, humans
Description: After giving written informed consent, 3 patients with metastatic castration-resistant prostate cancer received PSMA-radioligand therapy (RLT) and the related companion diagnostic under compassionate-care regulations. Prospective clinical trial registration is not required for compassionate care that is performed under an individual medical indication.
The timeline of imaging time points is illustrated in Figure 2.

| SMILES | mortality ([1]; mice) | dose without toxicologic effect ([1]; mice, third-party preclinical research organization) | organ weights or macroscopic observations ([1]; terminal or recovery euthanasia) | liver-to-kidney uptake ratio compared with PSMA-617 ([2]; initially, intraindividual comparison) | clearance route ([2]; dual-photopeak imaging) |
| --- | --- | --- | --- | --- | --- |
| O=C(O)CCC(NC(=O)NC(CCCCNC(=O)C(Cc1ccc2ccccc2c1)NC(=O)C1CCC(NC(=O)C(CO)NC(=O)C(CO)NC(=O)C(CO)NC(=O)CS)CC1)C(=O)O)C(=O)O (centres unmarked) [PSMA-GCK01] (Mercaptoacetyl-SSS[X1][2Nal]-X2; configuration not given here) | No test article–related mortality | up to 2 mg/kg | No differences | higher | – |
| O=C([O-])CN1CCN(CC(=O)[O-])CCN(CC(=O)NCC2CCC(C(=O)N[C@@H](Cc3ccc4ccccc4c3)C(=O)NCCCC[C@H](NC(=O)N[C@@H](CCC(=O)O)C(=O)O)C(=O)O)CC2)CCN(CC(=O)[O-])CC1.[177Lu+3] (some centres unmarked) [^177Lu-PSMA-617, reference compound] | – | – | – | – | combined renal and hepatointestinal clearance route |
